Data taken from patent publication US8084593B2, “Polynucleotide encoding a TRIM-Cyp polypeptide, compositions thereof, and methods of using same” (The Trustees of Columbia University in the City of New York, priority 2004, dated 2011).
“Also recorded” adds a separate entry of the source.

Tests used:
[1] = test system: N-MLV; experiment: N-MLV / B-MLV GFP vector infection of transduced TE671 cells, FACS; type: cell-based, murine leukemia virus; conditions: for N-MLV replication defect (N-tropic restriction by endogenous TRIM5αhu) in cells expressing the construct: TE671 cells, control cells: B-MLV ˜200-fold more infectious than N-MLV
Description: (§1) FIGS. 7a-7c. […] (a) TE671 cells expressing the indicated LPCX derived constructs were infected with GFP-expressing B-MLV and N-MLV vectors at multiple doses. Cells were infected in the presence or absence of As2O3 (3 μM). Two days later, the percentage of infected cells was determined by FACS. (b) OMK cells were transduced with MIG (Vect) or with MIG-TRIM5αhu (T5hu) and challenged with DsRed-expressing N-MLV or B-MLV vectors. Two days later, the percentage of infected cells was determined by FACS.
FIGS. 8a-8c. Effect of TRIMStop on TRIM5αhu antiviral activity. (a) TE671-Vector (Vector) cells and TE671-TRIMStop cells were infected with HIV-1NL-GFP (left panel) or with N- and B-MLV (right panel). Two days later, the percentage of infected (GFP expressing) cells was determined by FACS. (b) Total RNA was prepared from TE671-Vector (Vect), TE671-TRIMCyp (TC), and TE671-TRIMStop (TS), and RT-PCR was used to detect endogenous TRIM5α or TRIMCyp/TRIMStop. RT was performed in the presence (+) or absence (−) of reverse transcriptase. (c) 293T cells were transfected with LPCX (Vect), LPCX-TRIMCyp (TC), or LPCX-TRIMStop (TS), and Western blotting was performed using an antibody specific to TRIM5.
Next, we analyzed MLV replication in TE671-TRIM5αrh, TE671-TRIMCyp, and the control TE671-vector cells.

[2] = test system: HIV-1; type: cell-based, human immunodeficiency virus type 1
Description: (§2) HIV-DsRed and HIV-GFP vectors were produced in 293T cells by co-transfection of CSGW or CSRW with p8.9NΔSB (wild type or G89V mutant) and pMD.G, also at 5:5:1 ratio. HIV/Env-/GFP and SIV/Env-/GFP viruses were produced by cotransfection of the wild type or G89V HIV/Env-/GFP plasmids with pMD.G at a 10:1 ratio. All vectors and viruses were harvested 48 h post-transfection, filtered (0.45-μm filter, Pall Acrodisc), aliquoted, and stored at −80° C. Stocks were normalized by reverse transcriptase activity or p24 ELISA (8).
(§3) Infection assays—Cells were assayed by flow cytometry 48 to 72 h post-infection to determine the percentage of cells that were GFP-positive (FL-1) or DsRed-positive (FL-2). Cells transduced with pMIG vectors and infected with HIV-DsRed were gated to limit the analysis to GFP-positive cells.

[3] = test system: CAp30 from N-MLV virions; experiment: CA pull-out of N-MLV virions with GST-TRIM5 fusions; type: binding, murine leukemia virus; conditions: GST fusion produced in 293T cells, purified virions
[4] = test system: HIV-1; experiment: HIV-1-derived CSRW vector challenge of OMK/MIG and OMK/MIG-T5hu cells; type: cell-based, human immunodeficiency virus type 1; conditions: OMK cells expressing TRIM5αhu
Description: as §1
(§4) We also performed the reciprocal experiment, transducing owl monkey OMK cells with TRIM5αhu and challenging them with MLV or HIV-1.

[5] = test system: CAp30 from B-MLV virions; experiment: CA pull-out of B-MLV virions with GST-TRIM5 fusions; type: binding, murine leukemia virus; conditions: GST fusion produced in 293T cells, purified virions
[6] = test system: N-MLV; experiment: N-MLV DsRed vector challenge of OMK cells transduced with MIG-TRIM5αhu; type: cell-based, murine leukemia virus
Description: as §1, §4

[7] = test system: B-MLV; experiment: B-MLV DsRed vector challenge of OMK cells transduced with MIG-TRIM5αhu; type: cell-based, murine leukemia virus
Description: as §1, §4

[8] = test system: HIV-1NL-GFP; type: cell-based, human immunodeficiency virus type 1; conditions: for HIV-1 cDNA synthesis (Southern blot) / HIV-1 infection (GFP-positive cells by FACS): TE671 cells; for HIV-1 cDNA synthesis (Southern blot): 16 h after infection; for HIV-1 infection (GFP-positive cells by FACS): LPCX vectors
Description: FIG. 6. […] LPCX-based retroviral vectors were used to transduce the indicated genes into human TE671 cells. Vect, Cyp, TS, TC and T5rh designate, respectively, Vector control, owl monkey CypA, TRIMStop, TRIMCyp, and TRIM5αrh. […] One twentieth of the cells were maintained in culture for another day and used to determine the percentage of GFP-positive cells by FACS (bottom of the figure). Total DNA was extracted from the remainder of the cells 16 h after infection, and 5 μg of each DNA sample was analyzed by Southern blotting. The positions of the linear, 1-LTR, and 2-LTR HIV-1 cDNA species are indicated on the left. “Total” DNA refers to a band specific to all HIV-1 cDNA forms, including the integrated DNA.
We transduced human rhabdomyosarcoma TE671 cells (45) with previously described LPCX vectors (reference 5, see also Example 1) bearing cDNAs for TRIM5αrh, TRIMCyp, or owl monkey CypA. Cells were also transduced with a vector expressing TRIMStop, a truncated version of TRIMCyp lacking the CypA domain (see Example 1). Pools of transduced cells were selected in puromycin and then assessed for susceptibility to infection with HIV-1NL-GFP (32). […] We monitored the percentage of infected (GFP-expressing) cells by fluorescence-activated cell sorting (FACS) and the synthesis of viral cDNA in the infected cells using a Southern blot designed to detect full-length, linear viral cDNA and circular viral cDNAs that form in the nucleus (31, 32, 47).

[9] = test system: HIV-1; conditions: OMKMH-CypA-147 cells, pMIG vector, HIV-1 DsRed vector
Description: (§5) Generation of stable cell lines—To generate stable RNAi knockdown lines, 1 ml of pMH vector-containing media was pelleted onto OMK cells (1,200 g for 72 min) in 12-well plates. Infection was repeated 24 h later. ntTRIMCyp, TRIMStop and ntCypAOM cDNAs were transduced with either pMIG (OMK and HeLa cells) or pLPCX (TE671 and Rat2 cells). pLPCX-infected cells were selected in 1 μg ml^−1 puromycin.
as §3

[10] = test system: HIV-1
Description: (§6) FIGS. 3a-3e. […] WT, wild type. HeLa cells (d) or Rat2 cells (e) transduced with the indicated cDNAs were infected with HIV-1.
as §2, §5, §3

[11] = biological target: HIV-1 Gag (Human immunodeficiency virus type 1 group M subtype B, UniProt P12493); conditions: LexA / B42 fusions, S. cerevisiae EGY48
Description: (A) Yeast two-hybrid system. […] Pairs of fused LexA and B42 expression plasmids were transformed into Saccharomyces cerevisiae strain EGY48. For each transformant, β-galactosidase activity for three colonies is reported in Miller units with the standard deviation. (B) Binding in mammalian cells.
Fusions of these proteins with LexA and/or B42 were constructed, and the interactions between fusion proteins were analyzed using a previously described system (37) in which reporter gene β-galactosidase activity was assessed with a quantitative assay (43).

[12] = test system: HIV-1 clone NL4-3; experiment: Spreading HIV-1 NL4-3 infection of transduced Jurkat T cells, supernatant reverse transcriptase activity; type: cell-based, human immunodeficiency virus type 1; conditions: Jurkat T cells transduced with owl monkey TRIMCyp cDNA
Description: FIG. 13. […] Retroviral vectors were used to transduce human Jurkat T cells with the cDNA encoding owl monkey TRIMCyp. Control cells were transduced with vector lacking the cDNA. Cells were challenged with full infectious HIV-1 clone NL4-3. Supernatant was collected and assessed for viral reverse transcriptase activity (a quantitative measure of the amount of virus produced in the culture).

[13] = biological target: T1, TRIM5αhu (Homo sapiens, UniProt Q9C035); experiment: GST pull down from cotransfected 293T cells, Western blotting; type: binding; conditions: glutathione-Sepharose beads, anti-TRIM5 Western blot
T1 construct: expressed in transfected cells; host or cells: 293T
T1 sequence (Q9C035 whole entry): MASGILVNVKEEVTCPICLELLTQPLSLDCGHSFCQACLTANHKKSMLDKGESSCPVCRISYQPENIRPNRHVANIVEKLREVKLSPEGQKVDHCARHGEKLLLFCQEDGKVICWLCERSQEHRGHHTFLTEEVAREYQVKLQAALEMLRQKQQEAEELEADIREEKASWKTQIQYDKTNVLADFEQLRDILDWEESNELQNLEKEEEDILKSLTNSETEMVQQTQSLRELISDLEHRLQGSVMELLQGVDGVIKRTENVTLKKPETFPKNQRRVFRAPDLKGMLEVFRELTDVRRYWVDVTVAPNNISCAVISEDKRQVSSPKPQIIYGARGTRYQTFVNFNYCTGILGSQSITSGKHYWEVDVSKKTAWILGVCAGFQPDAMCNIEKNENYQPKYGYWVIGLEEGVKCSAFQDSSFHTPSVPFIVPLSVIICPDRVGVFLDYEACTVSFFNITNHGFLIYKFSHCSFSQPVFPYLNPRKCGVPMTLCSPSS
Description: (§7) FIGS. 9A-9B. TRIMCyp and TRIMStop both bind TRIM5αhu. (A) Yeast two-hybrid system. […] (B) Binding in mammalian cells. TRIM5αhu was fused to GST.
To investigate TRIM5:TRIMCyp heterodimerization in mammalian cells, we expressed TRIM5αhu in fusion with glutathione-S-transferase (GST) and transfected 293T cells with either GST or GST-TRIM5αhu. These cells were cotransfected with the LPCX plasmid constructs described above that express TRIMCyp or TRIMStop. […] The blot was also probed with an anti-cyclophilin A antibody, confirming the identity of TRIMCyp (FIG. 9b).

[14] = biological target: HIV-1 CA (Human immunodeficiency virus type 1 group M subtype B, UniProt P12493); conditions: detergent-prepared virion cores, affinity chromatography
Description: Retrovirion cores can be liberated from the viral membrane envelope by detergent (54). HIV-1 virion cores were prepared with several different detergents and mixed with recombinant TRIM5 orthologues.

[15] = test system: SIVMAC239; experiment: SIVMAC239 infection of TE671 cells transduced with cDNAs; type: cell-based, simian immunodeficiency virus; conditions: stable TE671 cell lines
Description: as §6, §2, §5, §3

[16] = test system: TRIM5 orthologues (TRIMCyp, TRIM5αrh, TRIM5αhu, TRIMStop, huTRIMStop); experiment: Yeast two-hybrid system, β-galactosidase activity: TRIM5 orthologues; type: binding; conditions: LexA / B42 fusions, S. cerevisiae EGY48
Description: as §7

[17] = test system: HIV-1; remark: listed apart in the source
Description: as §6, §5, §3

Molecule: O=[As]O[As]=O (centres unmarked) [As2O3]
- enhancement of infectivity in cells expressing TRIM5αrh or TRIMCyp ([1]; TE671-TRIM5αrh and TE671-TRIMCyp, As2O3 3 μM): no longer enhanced infectivity
- increase of N-MLV infectivity ([1]; control TE671 cells, As2O3 3 μM): ≥ 10 fold

Molecule: C/C=C/C[C@@H](C)[C@@H](O)[C@H]1C(=O)N[C@@H](CC)C(=O)N(C)CC(=O)N(C)[C@@H]([C@@H](C)CC)C(=O)N[C@@H](C(C)C)C(=O)N(C)[C@@H](CC(C)C)C(=O)N[C@@H](C)C(=O)N[C@H](C)C(=O)N(C)[C@@H](CC(C)C)C(=O)N(C)[C@@H](CC(C)C)C(=O)N(C)[C@@H](C(C)C)C(=O)N1C [MeIle^4-CsA]
- HIV-1 infection of OMK cells on drug treatment of target cells [2]: permits HIV-1 to infect OMK cells at an efficiency similar to that of SIV

Molecule: TRIM5 lacking the SPRY domain: GST fusion with human TRIM5 lacking the SPRY domain
- association of CAp30 from N-MLV virions [3]: did not associate

Molecule: TRIM5αhu: human TRIM5α; in Example 3 produced as a GST-fusion protein in 293T cells
- association of CAp30 from N-MLV virions [3]: associated
- restriction of HIV-1 compared with control cells [4]: similar
- association of CAp30 from B-MLV virions [5]: did not associate
- restrictive effect on the replication of N-MLV [6]: approximately twofold
- effect on B-MLV [7]: no effect

Molecule: TRIM5αrh: alpha isoform of rhesus macaque TRIM5 [reference compound]
- N-MLV replication defect (N-tropic restriction by endogenous TRIM5αhu) in cells expressing the construct [1]: about 20 fold
- HIV-1 cDNA synthesis (Southern blot) [8]: inhibited HIV-1 cDNA synthesis
- HIV-1 infection (GFP-positive cells by FACS) [8]: inhibited HIV-1 infection of TE671 cells

Molecule: TRIMCyp: owl monkey TRIM5-CypA fusion protein, 54-kD, SEQ ID NO:4; ntTRIMCyp is its RNAi-resistant cDNA with silent mutations
- HIV-1 restriction after transduction of RNAi-resistant cDNA [9]: restricted HIV-1
- HIV-1 infection / titre in cells expressing the cDNA [10]: highly resistant to HIV-1 infection
- interaction with HIV-1 Gag [11]: interacted equally well
- protection of human T cells from spreading HIV-1 infection [12]: protected from a spreading, cytopathic HIV-1 infection
- association with GST-TRIM5αhu [13]: associated with TRIM5αhu
- association of HIV-1 CA with TRIM5 orthologue [14]: associated
- SIVMAC239 infection in cells expressing the cDNA [15]: unaffected
- interaction with TRIM5 orthologues [16]: interacted equally well; also recorded: associates with human TRIM5-α
- N-MLV replication defect (N-tropic restriction by endogenous TRIM5αhu) in cells expressing the construct [1]: fully abrogated
- efficiency of inhibition of HIV-1 replication relative to TRIM5αrh [8]: roughly fivefold more efficiently than TRIM5αrh
- HIV-1 cDNA synthesis (Southern blot) [8]: inhibited HIV-1 cDNA synthesis
- HIV-1 infection (GFP-positive cells by FACS) [8]: inhibited HIV-1 infection of TE671 cells
- HIV-1 restriction in transduced HeLa cells ([17]; pMIG vector): exhibited the same restriction
- HIV-1 restriction in non-primate cells ([17]; rat fibroblasts (Rat2)): functional

Molecule: sanglifehrin
- HIV-1 infection of OMK cells on drug treatment of target cells [2]: permits HIV-1 to infect OMK cells at an efficiency similar to that of SIV

B1: TRIMStop: construct in which TRIMCyp has been truncated with a stop codon replacing the first codon of the CypA domain (protein)
chain: MASRILVNIKEEVTCPICLELLTEPLSLDCGHSFCQACITANHKKSMPHQGERSCPLCRISYSSENLRPNRHLVNIVERLREVMLSPEEGQKVDHCAHHGEKLVLFCQQDGNVICWLCERSQEHRGHQTFLVEEVAQKYREKLQVALEMMRQKQKDAEKLEADVREEQASWKIQIQNDKTNIMAEFKKRRDILDCEESKELQNLEKEEKNILKRLVQSENDMVLQTQSVRVLISDLEHRLQGSVMELLQGVDGVIKRIEKVTLQNPKTFLNEKRRIFQTPDLKGTLQVFKEPTEVQRYWDAAAWDLVASA
- HIV-1 infection / titre in cells expressing the cDNA [10]: no effect on HIV-1 titre
- interaction with HIV-1 Gag [11]: not able to interact with Gag
- association with GST-TRIM5αhu [13]: associated with TRIM5αhu
- interaction with TRIM5 orthologues [16]: as competent as TRIMCyp
- N-MLV replication defect (N-tropic restriction by endogenous TRIM5αhu) in cells expressing the construct [1]: did not affect the capacity of TE671 cells to restrict N-MLV replication
